One series deals with 3T3-L1 cell line. Kind of series: Cell viability assay (PrestoBlue, metabolic function), 3T3-L1. It is filed as cell-based, mouse. As to conditions: 24 h, mean. The protocol:
Prior to investigating the biological activity and molecular characteristics of the test compounds in vitro, a comprehensive cytotoxicity screening was performed using HepG2 and 3T3-L1 cell lines. Two complementary assays were applied: one based on the quantification of adenylate kinase release as an indicator of cell membrane damage, and another relying on resazurin reduction to assess cellular metabolic activity. These complementary assays enable sensitive and reliable detection of cytotoxic effects across diverse cell types. This preliminary assessment was carried out to ensure that subsequent functional analyses would not be confounded by nonspecific cytotoxic effects.
Cell viability was measured using PrestoBlue reagent (Thermo Fisher Scientific, Waltham, MA, USA), following the manufacturer’s instructions. After 24 h of compound treatment, PrestoBlue reagent was added to each well at 10% of the remaining medium volume. The plate was incubated at 37 °C for 15 min, and fluorescence was measured using the POLARstar Omega plate reader (excitation 530 nm, emission 580 nm). Results were expressed as a percentage of viable cells relative to the DMSO-treated control.

In a further series the test system is 3T3-L1 adipocytes. Kind of series: Steatosis, HCS LipidTOX imaging in 3T3-L1 adipocytes. It is filed as cell-based, mouse. The protocol: The 3T3-L1 mouse embryonic fibroblast cell line (ATCC CRL-11605) was cultured according to the standard protocol in Dulbecco’s Modified Eagle Medium (DMEM) supplemented with 10% bovine calf serum, 100 µg/mL streptomycin, and 100 IU/mL penicillin, at 37 °C in a humidified atmosphere containing 5% CO2. Cells were seeded at a density of 10,000 cells/well in collagen type I–coated (10 µg/mL) 96-well plates and allowed to attach for 24 h. Differentiation was initiated by replacing the medium with induction medium composed of DMEM, 0.5 mM 3-isobutyl-1-methylxanthine (IBMX), 1 µM dexamethasone, and 10% fetal bovine serum (FBS). After 48 h (differentiation day 2), the medium was replaced with DMEM supplemented with 10% FBS and 10 µg/mL human recombinant insulin. After an additional 24 h, the medium was replaced with DMEM supplemented with 10% bovine calf serum, 100 µg/mL streptomycin, and 100 IU/mL penicillin. The medium was refreshed every 24 h for 10 consecutive days to allow full differentiation into adipocytes.
Lipid accumulation and phospholipidosis were evaluated using the HCS LipidTOX Phospholipidosis and Steatosis Detection Kit (Thermo Fisher Scientific). Cells were cultured in black, clear-bottom 96-well plates and treated as described. Next, cells were fixed with 4% paraformaldehyde (15 min), washed with PBS, and stained with LipidTOX Green Neutral Lipid Stain (for steatosis) and LipidTOX Red Phospholipidosis Detection Reagent, prepared according to the manufacturer’s instructions. Nuclei were counterstained with Hoechst 33342 (2 µg/mL). Image acquisition and quantitative analysis were performed using High Content Screening (HCS) technology on the ImageXpress XLS system (Molecular Devices). Lipid droplet and phospholipid content were quantified using automated image analysis pipelines.

Consider `[H]/N=C(\N)NN=Cc1c(Cl)cncc1Cl` [JP-14, (E)-2-((3,5-Dichloropyridin-4-yl)Methylene)Hydrazine-1-Carboximidamide], for which the “cellular metabolic function, percentage relative to control (live cells)” value with 3T3-L1 cell line (Table S5, 0.1 μM) was found to be 87%; in the series on 3T3-L1 cell line (Table S5, 1 μM), 85%; in the series with 3T3-L1 cell line (Table S5, 10 μM), 82%; in the series with 3T3-L1 cell line (Table S5, 50 μM) it was 80%; in the series on 3T3-L1 cell line (Table S5, 100 μM) it was 51%. For the same compound, the “effect on steatosis under TAAR1 blockade” value in the series on 3T3-L1 adipocytes (10 µM + RTI-7470-44 (40 nM)) is listed as “abolished”. Also, the “steatosis (neutral lipid accumulation)” value in the series with 3T3-L1 adipocytes (10 µM, vs vehicle) is given as “statistically significant decrease”.

The record behind these values is paper PMC12563652 (International Journal of Molecular Sciences, 2025).
